Test results as given in ChEMBL document CHEMBL4673311, “Development of pyrimidone D1 dopamine receptor positive allosteric modulators” (Bioorg Med Chem Lett, 2021).

Legend:
[1] = target: D(1B) dopamine receptor (Homo sapiens) (UniProt P21918); test: Positive allosteric modulator activity at human dopamine D5 receptor expressed in CHO-K1 cells assessed as fold change in dopamine EC50 for beta-arrestin2 recruitment at 50 uM incubated for 90 mins by PathHunter assay relative to control; type: cell-based; settings: filed as positive allosteric modulator
Sequence of D(1B) dopamine receptor (Homo sapiens) (P21918 whole entry): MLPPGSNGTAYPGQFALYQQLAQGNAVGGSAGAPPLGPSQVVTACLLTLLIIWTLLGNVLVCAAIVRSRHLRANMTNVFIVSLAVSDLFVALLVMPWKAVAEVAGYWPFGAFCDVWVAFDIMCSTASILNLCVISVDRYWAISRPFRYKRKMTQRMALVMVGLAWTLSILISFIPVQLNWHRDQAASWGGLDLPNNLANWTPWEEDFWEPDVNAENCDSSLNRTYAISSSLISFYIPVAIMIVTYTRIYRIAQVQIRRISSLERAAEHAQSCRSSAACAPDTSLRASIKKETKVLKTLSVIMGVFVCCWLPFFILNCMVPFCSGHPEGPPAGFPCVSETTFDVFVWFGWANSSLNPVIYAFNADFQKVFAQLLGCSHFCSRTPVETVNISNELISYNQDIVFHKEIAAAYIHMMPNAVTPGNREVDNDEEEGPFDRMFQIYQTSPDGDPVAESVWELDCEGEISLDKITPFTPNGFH

[2] = target: D(1B) dopamine receptor (Homo sapiens) (UniProt P21918); test: Positive allosteric modulator activity at human dopamine D5 receptor expressed in CHO-K1 cells assessed as fold change in dopamine Emax for beta-arrestin2 recruitment at 50 uM incubated for 90 mins by PathHunter assay relative to control; type: cell-based; settings: filed as positive allosteric modulator

## Cn1c2ccccc2c(=O)c2c(=O)n(-c3ccccc3)c(C3CCCCC3)nc21
[1]
  fold change (FC): 2.84
[2]
  fold change (FC): 1.5
